The source of these data is PubChem BioAssay (NCI).

Common to all, as to assay: DTP human tumour cell line panel, 48 h
Experiment [1] deals with SF-295 CNS.
The test system of experiment [2] is M14 melanoma.
The test system of experiment [3] is HT29 colon.
Experiment [4] concerns A498 renal.
In experiment [5] the test system is SK-OV-3 ovarian.
Experiment [6] has as its system HOP-92 NSCLC.
Experiment [7] concerns HCC-2998 colon.
The test system of experiment [8] is MOLT-4 leukemia.
The test system of experiment [9] is UO-31 renal.
Experiment [10] has as its system MDA-MB-435.
Experiment [11] has as its system NCI-H460 lung.
Experiment [12] concerns TK-10 renal.
Experiment [13] concerns OVCAR-5 ovarian.
The subject of experiment [14] is SNB-19 CNS.
The test system of experiment [15] is MDA-MB-231 breast.
Experiment [16] has as its system LOX IMVI melanoma.
Experiment [17] deals with SW-620 colon.
Experiment [18] concerns T-47D breast.
For experiment [19], the system named is SF-268 CNS.
Experiment [20] concerns NCI-H522 lung.

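Grown in 96-well plates, cells were treated for 48 hours with each compound at five concentrations. Insufficient inhibition: endpoint recorded as highest concentration tested. TGI: total growth inhibition.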 *1 amine or outer side, *2 acyl side, *3 side chain or, on linkers, in order; H or OH if unused. Where a SMILES comes first, the peptide text is derived from it. Bridges are numbered along the chain shown (N, C = ends). Roman numbers before positions name the chains, in order. [ ]: non-standard residue; d: D form. Actinocin(9to1) = Cc1c2oc3c(C)ccc(C(=O)[*:1])c3nc-2c(C(=O)[*:2])c(N)c1=O; X48 = O=C1CC(C(=O)[*:2])N([*:1])C1; NMeV = CN[CH](C(=O)O)C(C)C; Sar = CNCC(=O)O

With `Cc1c2oc3c(C)ccc(C(=O)NC4C(=O)NC(C(C)C)C(=O)N5CC(=O)CC5C(=O)N(C)CC(=O)N(C)C(C(C)C)C(=O)OC4C)c3nc-2c(C(=O)NC2C(=O)NC(C(C)C)C(=O)N3CC(=O)CC3C(=O)N(C)CC(=O)N(C)C(C(C)C)C(=O)OC2C)c(N)c1=O` (centres undefined) (I: TV[X48][Sar][NMeV] / II: TV[X48][Sar][NMeV]; ester I:1-I:C, II:1-II:C; linker I:N-II:N via Actinocin(9to1); configuration not given here), the TGI in experiment [1], in [2], in experiment [3], in experiment [4], in experiment [5] and in experiment [6] was greater than 1 µM in each case. Moreover, the TGI in experiment [7], in experiment [8], in [9], in experiment [10], in [11] and in experiment [12] was greater than 1 µM in each case. The TGI in [13], in [14], in experiment [15], in experiment [16], in [17] and in experiment [18] was greater than 1 µM each time.

In the case of `CCCCCCCCCCCCn1c(=O)cc(NCCCC)c2cc3c(NCCCC)cc(=O)n(CCCCCCCCCCCC)c3nc21`, the TGI in experiment [1], in experiment [2], in experiment [4], in [5], in experiment [6] and in experiment [7] was greater than 100 µM each time. Also, the TGI in [19], in experiment [8], in [9], in experiment [10], in experiment [11] and in [12] was greater than 100 µM throughout. Also, the total growth inhibition concentration (TGI) in experiment [14], in [15], in experiment [18] and in [20] was greater than 100 µM each time.

As for `COc1ccc(CNc2nc3cc(C(F)(F)F)ccc3nc2C(=O)O)cc1OC`, the TGI is greater than 100 µM in experiment [1]; greater than 100 µM in experiment [2]; greater than 100 µM in [3]; 73.2 µM in experiment [4]; greater than 100 µM in experiment [5]; greater than 100 µM in experiment [6]. Moreover, the TGI is 95.8 µM in experiment [7]; 55.7 µM in experiment [8]; greater than 100 µM in experiment [9]; 80.2 µM in experiment [10]; greater than 100 µM in experiment [11]; greater than 100 µM in experiment [13]. The TGI in experiment [14], in experiment [15], in [16], in experiment [17] and in experiment [18] was greater than 100 µM each time.

On to `O=C1C2=Cc3ccccc3OC2(O)Oc2cc(O)ccc21` (centres undefined), for which the TGI in [1], in [2], in experiment [3], in [4], in experiment [5] and in experiment [6] was greater than 100 µM each time. Moreover, the TGI in experiment [7], in experiment [19], in experiment [8], in experiment [10], in experiment [12] and in experiment [13] was greater than 100 µM each time. Moreover, the TGI in [15], in experiment [16], in experiment [17] and in experiment [18] was greater than 100 µM throughout.

For `CC(=O)OCCCCn1cnc2nc(Nc3ccccc3)nc(Cl)c21`, the TGI in [1], in experiment [2], in experiment [3], in experiment [4], in experiment [5] and in experiment [6] was greater than 100 µM throughout. The TGI in experiment [7], in experiment [19], in [8], in [9], in [10] and in experiment [11] was greater than 100 µM in each case. Besides, the total growth inhibition concentration (TGI) in [12], in [14], in experiment [15], in experiment [16], in [17] and in experiment [18] was greater than 100 µM in each case.

Consider `O=C1c2cccnc2S(=O)N1Cc1ccccc1` (centres undefined), for which the TGI in [1], in experiment [2], in experiment [3], in experiment [4], in experiment [5] and in experiment [6] was greater than 100 µM each time. The TGI in experiment [7], in experiment [19], in experiment [8], in experiment [9], in experiment [10] and in experiment [11] was greater than 100 µM in each case. In addition, the concentration for total growth inhibition (TGI) in experiment [12], in experiment [13], in [14], in experiment [15], in experiment [17] and in experiment [18] was greater than 100 µM throughout. The molecule further returned a TGI in [20] greater than 100 µM.

For `COc1ccc(C(=O)N2CCc3c([nH]c4ccccc34)C2C(=O)O)o1` (centres undefined), the TGI in experiment [1], in experiment [2], in experiment [3], in experiment [4], in experiment [5] and in [6] was greater than 10 µM throughout. The TGI in experiment [7], in experiment [19], in experiment [8], in experiment [10], in [12] and in experiment [14] was greater than 10 µM each time. The total growth inhibition concentration (TGI) in [15], in [17] and in experiment [18] was greater than 10 µM throughout.
